How the values were obtained:
corn = assay: Test A pre-/postemergence greenhouse test; type: in vivo, Zea mays; details: for Corn plant response rating: 0 to 100 scale; for Plant response rating, Corn: 0 to 100 scale where 0 is no effect and 100 is complete control
In short: (§1)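 Each test compound, dissolved in a non-phytotoxic solvent mixture with surfactant, was sprayed directly onto seeded soil (loam/sand blend) and, at the same moment, onto seedlings carrying one to two leaves. Around ten greenhouse days later, plants were rated visually for injury relative to untreated controls.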

crabgrass = assay: Test A pre-/postemergence greenhouse test; type: in vivo, Digitaria sanguinalis; details: for Crabgrass, Large plant response rating: 0 to 100 scale; for Plant response rating, Crabgrass, Large: 0 to 100 scale where 0 is no effect and 100 is complete control
In short: as §1

redroot pigweed = assay: Test A pre-/postemergence greenhouse test; type: in vivo, Amaranthus retroflexus; details: for Pigweed plant response rating: 0 to 100 scale; for Plant response rating, Pigweed: 0 to 100 scale where 0 is no effect and 100 is complete control
In short: as §1

wheat = assay: Test A pre-/postemergence greenhouse test; type: in vivo, Triticum aestivum; details: for Wheat plant response rating: 0 to 100 scale
In short: as §1

velvetleaf = assay: Test A pre-/postemergence greenhouse test; type: in vivo, Abutilon theophrasti; details: for Velvetleaf plant response rating: 0 to 100 scale; for Plant response rating, Velvetleaf: 0 to 100 scale where 0 is no effect and 100 is complete control
In short: as §1

barnyardgrass [1] = assay: Test C flooded paddy test; type: in vivo, Echinochloa crus-galli; details: Flood
In short: (§2)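 Compound was added to standing water 3 cm above soil, flood maintained, and plants held in a greenhouse before visual scoring against controls at 13 to 15 days.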

rice = assay: Test C flooded paddy test; type: in vivo, Oryza sativa; details: Flood
In short: as §2

morningglory = assay: Test A pre-/postemergence greenhouse test; type: in vivo, Ipomoea spp.; details: for Morningglory plant response rating: 0 to 100 scale; for Plant response rating, Morningglory: 0 to 100 scale where 0 is no effect and 100 is complete control
In short: as §1

giant foxtail = assay: Test A pre-/postemergence greenhouse test; type: in vivo, Setaria faberi; details: for Foxtail, Giant plant response rating: 0 to 100 scale; for Plant response rating, Foxtail, Giant: 0 to 100 scale where 0 is no effect and 100 is complete control
In short: as §1

duck salad = assay: Test C flooded paddy test; type: in vivo, Heteranthera limosa; details: Flood
In short: as §2

barnyardgrass [2] = assay: Test A pre-/postemergence greenhouse test; type: in vivo, Echinochloa crus-galli; details: for Barnyardgrass plant response rating: 0 to 100 scale; for Plant response rating, Barnyardgrass: 0 to 100 scale where 0 is no effect and 100 is complete control
In short: as §1

umbrella sedge = assay: Test C flooded paddy test; type: in vivo, Cyperus difformis; details: Flood
In short: as §2

[3] = Postemergence, 125 g ai/ha, 0 is no effect, 100 is complete control
[4] = Postemergence, 500 g ai/ha, 0 is no effect, 100 is complete control
[5] = Preemergence, 125 g ai/ha, 0 no effect, 100 complete control
[6] = 31 g ai/ha, scale 0 to 100 (0 no effect, 100 complete control)
[7] = 62 g ai/ha, scale 0 to 100, 0 no effect, 100 complete control, 13 to 15 days
[8] = 125 g ai/ha, scale 0 to 100, 0 no effect, 100 complete control, 13 to 15 days
[9] = 250 g ai/ha, scale 0 to 100, 0 no effect, 100 complete control, 13 to 15 days
[10] = Preemergence, 500 g ai/ha, 0 no effect, 100 complete control
[11] = 62 g ai/ha, scale 0 to 100 (0 no effect, 100 complete control)

## Cn1nc(C(F)(F)F)c(CS(=O)(=O)c2cc(Cl)cc[n+]2[O-])c1Cl [Compound 38]
corn; [3]
  Corn plant response rating: 0
corn; [4]
  Corn plant response rating: 0
corn; [5]
  Corn plant response rating: 0
corn; Preemergence, 500 g ai/ha
  Plant response rating, Corn: 0
crabgrass; [3]
  Crabgrass, Large plant response rating: 0
crabgrass; [4]
  Crabgrass, Large plant response rating: 0
crabgrass; [5]
  Crabgrass, Large plant response rating: 0
crabgrass; Preemergence, 500 g ai/ha
  Plant response rating, Crabgrass, Large: 0
Redroot pigweed; [3]
  Pigweed plant response rating: 0
Redroot pigweed; [4]
  Pigweed plant response rating: 0
Redroot pigweed; [5]
  Pigweed plant response rating: 0
Redroot pigweed; Preemergence, 500 g ai/ha
  Plant response rating, Pigweed: 0
wheat; [3]
  Wheat plant response rating: 0
wheat; [4]
  Wheat plant response rating: 0
wheat; [5]
  Wheat plant response rating: 0
wheat; Preemergence, 500 g ai/ha, 0 to 100 scale where 0 is no effect and 100 is complete control
  Plant response rating, Wheat: 0
velvetleaf; [3]
  Velvetleaf plant response rating: 0
velvetleaf; [4]
  Velvetleaf plant response rating: 0
velvetleaf; [5]
  Velvetleaf plant response rating: 0
velvetleaf; Preemergence, 500 g ai/ha
  Plant response rating, Velvetleaf: 0
Barnyardgrass [1]; [6]
  Plant response rating, Barnyardgrass: 0
Barnyardgrass [1]; [7]
  Plant response rating, Barnyardgrass: 0
Barnyardgrass [1]; [8]
  Plant response rating, Barnyardgrass: 0
Barnyardgrass [1]; [9]
  Plant response rating, Barnyardgrass: 0
rice; [6]
  Plant response rating, Rice: 0
rice; [7]
  Plant response rating, Rice: 0
rice; [8]
  Plant response rating, Rice: 0
rice; [9]
  Plant response rating, Rice: 0
morningglory; [3]
  Morningglory plant response rating: 0
morningglory; [4]
  Morningglory plant response rating: 0
morningglory; [5]
  Morningglory plant response rating: 0
morningglory; Preemergence, 500 g ai/ha
  Plant response rating, Morningglory: 0
Giant foxtail; [3]
  Foxtail, Giant plant response rating: 0
Giant foxtail; [4]
  Foxtail, Giant plant response rating: 0
Giant foxtail; [5]
  Foxtail, Giant plant response rating: 0
Giant foxtail; Preemergence, 500 g ai/ha
  Plant response rating, Foxtail, Giant: 30
Duck salad; [6]
  Plant response rating, Ducksalad: 0
Duck salad; [7]
  Plant response rating, Ducksalad: 0
Duck salad; [8]
  Plant response rating, Ducksalad: 0
Duck salad; [9]
  Plant response rating, Ducksalad: 0
Barnyardgrass [2]; [3]
  Barnyardgrass plant response rating: 0
Barnyardgrass [2]; [4]
  Barnyardgrass plant response rating: 0
Barnyardgrass [2]; [5]
  Barnyardgrass plant response rating: 30
Barnyardgrass [2]; Preemergence, 500 g ai/ha
  Plant response rating, Barnyardgrass: 60
Umbrella sedge; [6]
  Plant response rating, Sedge, Umbrella: 0
Umbrella sedge; [7]
  Plant response rating, Sedge, Umbrella: 0
Umbrella sedge; [8]
  Plant response rating, Sedge, Umbrella: 0
Umbrella sedge; [9]
  Plant response rating, Sedge, Umbrella: 0

## CC(Oc1c(CS(=O)(=O)c2ccc(Cl)c[n+]2[O-])c(C(F)(F)F)nn1C)C(F)(F)F (centres unmarked) [Compound 95]
corn; [4]
  Corn plant response rating: 0
corn; [5]
  Corn plant response rating: 0
corn; Preemergence, 500 g ai/ha
  Plant response rating, Corn: 0
crabgrass; Postemergence, 125 g ai/ha
  Plant response rating, Crabgrass, Large: 20
crabgrass; [4]
  Crabgrass, Large plant response rating: 80
crabgrass; [5]
  Crabgrass, Large plant response rating: 20
crabgrass; Preemergence, 500 g ai/ha
  Plant response rating, Crabgrass, Large: 80
Redroot pigweed; Postemergence, 125 g ai/ha
  Plant response rating, Pigweed: 0
Redroot pigweed; [4]
  Pigweed plant response rating: 30
Redroot pigweed; [5]
  Pigweed plant response rating: 0
Redroot pigweed; Preemergence, 500 g ai/ha
  Plant response rating, Pigweed: 10
wheat; [4]
  Wheat plant response rating: 30
wheat; [5]
  Wheat plant response rating: 0
wheat; [10]
  Wheat plant response rating: 30
velvetleaf; Postemergence, 125 g ai/ha
  Plant response rating, Velvetleaf: 40
velvetleaf; [4]
  Velvetleaf plant response rating: 40
velvetleaf; [5]
  Velvetleaf plant response rating: 0
velvetleaf; [10]
  Velvetleaf plant response rating: 0
Barnyardgrass [1]; [11]
  Plant response rating, Barnyardgrass: 0
Barnyardgrass [1]; [9]
  Plant response rating, Barnyardgrass: 20
rice; [11]
  Plant response rating, Rice: 0
rice; [9]
  Plant response rating, Rice: 20
morningglory; Postemergence, 125 g ai/ha
  Plant response rating, Morningglory: 0
morningglory; [4]
  Morningglory plant response rating: 20
morningglory; [5]
  Morningglory plant response rating: 0
morningglory; Preemergence, 500 g ai/ha
  Plant response rating, Morningglory: 20
Giant foxtail; Postemergence, 125 g ai/ha
  Plant response rating, Foxtail, Giant: 20
Giant foxtail; [4]
  Foxtail, Giant plant response rating: 80
Giant foxtail; [5]
  Foxtail, Giant plant response rating: 70
Giant foxtail; Preemergence, 500 g ai/ha
  Plant response rating, Foxtail, Giant: 90
Duck salad; [11]
  Plant response rating, Ducksalad: 0
Duck salad; [9]
  Plant response rating, Ducksalad: 80
Barnyardgrass [2]; Postemergence, 125 g ai/ha
  Plant response rating, Barnyardgrass: 50
Barnyardgrass [2]; [4]
  Barnyardgrass plant response rating: 70
Barnyardgrass [2]; [5]
  Barnyardgrass plant response rating: 10
Barnyardgrass [2]; Preemergence, 500 g ai/ha
  Plant response rating, Barnyardgrass: 90
Umbrella sedge; [11]
  Plant response rating, Sedge, Umbrella: 0
Umbrella sedge; [9]
  Plant response rating, Sedge, Umbrella: 35

From patent publication US20100298141A1, “SUBSTITUTED PYRIDINE N-OXIDE HERBICIDES” (E. I. DU PONT DE NEMOURS AND COMPANY, priority 2007, published 2010)
